Measurements from patent US9650395B2, “Antibacterial compounds and methods for use” (PTC Therapeutics, Inc., priority 2011, dated 2017).
Values after ≈ are worked out from the molar mass of the structure shown. Where a name gives a salt, the structure may show the parent alone. Read-outs that look alike come from different tables or passages of the source.

Columns and labels:
[1] = tested on: super sensitive Gram-negative Escherichia coli (E. coli) BAS849; experiment: Antibacterial activity, microbroth dilution MIC, E. coli BAS849; format: cell-based; settings: Escherichia coli, read-out: MIC, BAS849
[2] = tested on: control Gram-negative E. coli 25922 strain; experiment: Antibacterial activity, microbroth dilution MIC, E. coli 25922; format: cell-based, Escherichia coli; settings: Escherichia coli; E. coli 25922, microbroth dilution; read-out: MIC, 25922
[3] = tested on: Gram-positive Staphylococcus aureus (S. aureus) 29213; experiment: Antibacterial activity, microbroth dilution MIC, S. aureus 29213; format: cell-based; settings: Staphylococcus aureus; S. aureus 29213, microbroth dilution; read-out: MIC, 29213
[4] = tested on: quinolone resistant E. coli LZ3111; experiment: Antibacterial activity, MIC, quinolone resistant E. coli LZ3111; format: cell-based, Escherichia coli; settings: Escherichia coli, read-out: MIC, LZ3111
Excerpt: (§1) The antibacterial activity from a microbroth dilution method may be presented as the minimum inhibitory concentration (MIC in […]). The MIC value is the lowest concentration of a drug which prevents macroscopically visible bacterial growth under test conditions.
Mutations in these regions are known to confer a high level resistance to the quinolone class of antibiotics.

[5] = tested on: Acinetobacter baumannii (A. baumannii) BAA747; experiment: Antibacterial activity, MIC, A. baumannii BAA747; format: cell-based; settings: Acinetobacter baumannii; A. baumannii BAA747; read-out: MIC BAA747
[6] = tested on: Klebsiella pneumoniae (K. pneumoniae) 35657; experiment: Antibacterial activity, MIC, K. pneumoniae 35657; format: cell-based; settings: Klebsiella pneumoniae
[7] = tested on: Pseudomonas aeruginosa (P. aeruginosa) 27853; experiment: Antibacterial activity, MIC, P. aeruginosa 27853; format: cell-based; settings: Pseudomonas aeruginosa, P. aeruginosa 27853; read-out: MIC 27853
Excerpt: as §1
Antibacterial activity of test compounds against the Gram-negative bacterium Pseudomonas aeruginosa (P. aeruginosa) 27853 is shown in Table 5.

[8] = tested on: E. coli ELZ4000 (MDR clinical isolate); experiment: Antibacterial activity, MIC, MDR E. coli ELZ4000; format: cell-based, Escherichia coli; settings: Escherichia coli; E. coli ELZ4000, MDR clinical isolate; read-out: MIC ELZ4000
[9] = tested on: E. coli ELZ4251 (MDR clinical isolate); experiment: Antibacterial activity, MIC, MDR E. coli ELZ4251; format: cell-based, Escherichia coli; settings: Escherichia coli, E. coli ELZ4251, MDR clinical isolate; read-out: MIC ELZ4251
[10] = tested on: Haemophilus influenzae (H. influenzae) 49247; experiment: Antibacterial activity, MIC, H. influenzae 49247; format: cell-based; settings: Haemophilus influenzae; H. influenzae 49247; read-out: MIC 49247
Method in brief: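 Antibacterial activity against the Gram-negative organism Haemophilus influenzae strain 49247 was measured by microbroth dilution. The minimum inhibitory concentration (MIC) was taken as the lowest drug concentration that stopped bacterial growth from being visible to the naked eye under the test conditions.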

[11] = tested on: Moraxella catarrhalis (M. catarrhalis) 25238; experiment: Antibacterial activity, MIC, M. catarrhalis 25238; format: cell-based; settings: Moraxella catarrhalis, M. catarrhalis 25238; read-out: MIC 25238
[12] = tested on: Neisseria meningitidis (N. meningitidis) 13090; experiment: Antibacterial activity, MIC, N. meningitidis 13090; format: cell-based; settings: Neisseria meningitidis; N. meningitidis 13090; read-out: MIC 13090
[13] = E. coli BAS849, microbroth dilution

Structure (SMILES) | MIC [1, 13] [µg/mL] | MIC [2] [µg/mL] | MIC [3] [µg/mL] | MIC [4] [µg/mL] | MIC [5] [µg/mL] | MIC [6] [µg/mL] | MIC [7] [µg/mL] | MIC [8] [µg/mL] | MIC [9] [µg/mL] | MIC [10] [µg/mL] | MIC [11] [µg/mL] | MIC [12] [µg/mL] | MIC [1] [µg/mL]
CCc1cc(C(=O)O)c(=O)[nH]c1-c1ccc(N2Cc3cccnc3C2)cc1 [Cpd 192, 6-[4-(5,7-dihydro-6H-pyrrolo[3,4-b]pyridin-6-yl)phenyl]-5-ethyl-2-oxo-1,2-dihydropyridine-3-carboxylic acid] | < 1 | 3.5 to 12.5 (≈ 9.68 to 34.6 µM) | 3.5 to 12.5 (≈ 9.68 to 34.6 µM) | 12.5 to 150 (≈ 34.6 to 415 µM) | 12.5 to 150 (≈ 34.6 to 415 µM) | 12.5 to 150 (≈ 34.6 to 415 µM) | 12.5 to 150 (≈ 34.6 to 415 µM) |  |  |  |  |  | 
CC(C)c1cc(C(=O)O)c(=O)[nH]c1-c1ccc(N(C)C)cc1 [Cpd 95, 6-[4-(dimethylamino)phenyl]-2-oxo-5-(propan-2-yl)-1,2-dihydropyridine-3-carboxylic acid] | < 1 | 3.5 to 12.5 (≈ 11.7 to 41.6 µM) | 12.5 to 150 (≈ 41.6 to 499 µM) | 12.5 to 150 (≈ 41.6 to 499 µM) |  | 12.5 to 150 (≈ 41.6 to 499 µM) | 12.5 to 150 (≈ 41.6 to 499 µM) | 12.5 to 150 (≈ 41.6 to 499 µM) | 12.5 to 150 (≈ 41.6 to 499 µM) | < 1 | < 1 | < 1 | 
CCc1c(-c2ccc(N(C)C)c(F)c2)[nH]c(=O)c(C(=O)O)c1O [Cpd 94, 6-[4-(dimethylamino)-3-fluorophenyl]-5-ethyl-4-hydroxy-2-oxo-1,2-dihydropyridine-3-carboxylic acid] | < 1 | 12.5 to 150 (≈ 39 to 468 µM) | 12.5 to 150 (≈ 39 to 468 µM) | 12.5 to 150 (≈ 39 to 468 µM) | 12.5 to 150 (≈ 39 to 468 µM) | 12.5 to 150 (≈ 39 to 468 µM) | 12.5 to 150 (≈ 39 to 468 µM) | 12.5 to 150 (≈ 39 to 468 µM) | 12.5 to 150 (≈ 39 to 468 µM) | < 1 | < 1 | < 1 | 
CCc1c(-c2ccc(N3CC[C@@H](O)C3)cc2F)[nH]c(=O)c(C(=O)O)c1O [Cpd 292, 5-ethyl-6-{2-fluoro-4-[(3R)-3-hydroxypyrrolidin-1-yl]phenyl}-4-hydroxy-2-oxo-1,2-dihydropyridine-3-carboxylic acid] | < 1 | 1 to 3.5 (≈ 2.76 to 9.66 µM) | 12.5 to 150 (≈ 34.5 to 414 µM) | 12.5 to 150 (≈ 34.5 to 414 µM) | 3.5 to 12.5 (≈ 9.66 to 34.5 µM) | 1 to 3.5 (≈ 2.76 to 9.66 µM) | 3.5 to 12.5 (≈ 9.66 to 34.5 µM) |  |  |  |  |  | 
CCc1c(-c2ccc(N3CC4CCCCC4(C#N)C3)cc2)[nH]c(=O)c(C(=O)O)c1O.O=C(O)C(F)(F)F (stereo not drawn) [Cpd 276, 6-[4-(3a-cyanooctahydro-2H-isoindol-2-yl)phenyl]-5-ethyl-4-hydroxy-2-oxo-1,2-dihydropyridine-3-carboxylic acid trifluoroacetate] |  | 12.5 to 150 | 1 to 3.5 | 12.5 to 150 | 12.5 to 150 | 12.5 to 150 | 12.5 to 150 |  |  |  |  |  | < 1
CCc1cc(C(=O)O)c(=O)[nH]c1-c1ccc(-n2cccc2)cc1 [Cpd 101, 5-ethyl-2-oxo-6-[4-(1H-pyrrol-1-yl)phenyl]-1,2-dihydropyridine-3-carboxylic acid] | < 1 | 12.5 to 150 (≈ 40.5 to 486 µM) | 12.5 to 150 (≈ 40.5 to 486 µM) | 12.5 to 150 (≈ 40.5 to 486 µM) |  | 3.5 to 12.5 (≈ 11.4 to 40.5 µM) | 12.5 to 150 (≈ 40.5 to 486 µM) | 12.5 to 150 (≈ 40.5 to 486 µM) | 12.5 to 150 (≈ 40.5 to 486 µM) | < 1 | < 1 | < 1 | 
CCc1cc(C(=O)O)c(=O)[nH]c1-c1ccc(N2C[C@@H]3[C@@H](N)[C@@H]3C2)cc1F [Cpd 231, 6-{4-[(1R,5S,6s)-6-amino-3-azabicyclo[3.1.0]hex-3-yl]-2-fluorophenyl}-5-ethyl-2-oxo-1,2-dihydropyridine-3-carboxylic acid trifluoroacetate] |  | 1 to 3.5 | 12.5 to 150 | 12.5 to 150 | 12.5 to 150 | 1 to 3.5 | 12.5 to 150 |  |  |  |  |  | < 1
CCc1cc(C(=O)O)c(=O)[nH]c1-c1ccc(N(CC)CC)cc1 [Cpd 97, 6-[4-(diethylamino)phenyl]-5-ethyl-2-oxo-1,2-dihydropyridine-3-carboxylic acid] | < 1 | 3.5 to 12.5 (≈ 11.1 to 39.8 µM) | 12.5 to 150 (≈ 39.8 to 477 µM) | 12.5 to 150 (≈ 39.8 to 477 µM) |  | 3.5 to 12.5 (≈ 11.1 to 39.8 µM) | 12.5 to 150 (≈ 39.8 to 477 µM) | 12.5 to 150 (≈ 39.8 to 477 µM) | 12.5 to 150 (≈ 39.8 to 477 µM) | < 1 | < 1 | < 1 | 
CCc1cc(C(=O)O)c(=O)[nH]c1-c1ccc(N2CCC(C3(NCc4ccccc4)CC3)C2)cc1.O=C(O)C(F)(F)F (stereo not drawn) [Cpd 217, 6-(4-{3-[1-(benzylamino)cyclopropyl]pyrrolidin-1-yl}phenyl)-5-ethyl-2-oxo-1,2-dihydropyridine-3-carboxylic acid trifluoroacetate] |  | 3.5 to 12.5 | 3.5 to 12.5 |  | 12.5 to 150 | 3.5 to 12.5 | 12.5 to 150 |  |  |  |  |  | < 1
CCc1cc(C(=O)O)c(=O)[nH]c1-c1ccc(N2CC[C@@H](O)C2)cc1F [Cpd 225, 5-ethyl-6-{2-fluoro-4-[(3R)-3-hydroxypyrrolidin-1-yl]phenyl}-2-oxo-1,2-dihydropyridine-3-carboxylic acid] | < 1 | 3.5 to 12.5 (≈ 10.1 to 36.1 µM) | 12.5 to 150 (≈ 36.1 to 433 µM) | 12.5 to 150 (≈ 36.1 to 433 µM) | 12.5 to 150 (≈ 36.1 to 433 µM) | 1 to 3.5 (≈ 2.89 to 10.1 µM) | 12.5 to 150 (≈ 36.1 to 433 µM) |  |  |  |  |  | 
CCc1cc(C(=O)O)c(=O)[nH]c1-c1ccc(N2CC3CCCCC3(C#N)C2)cc1 (stereo not drawn) [Cpd 219, 6-[4-(3a-cyanooctahydro-2H-isoindol-2-yl)phenyl]-5-ethyl-2-oxo-1,2-dihydropyridine-3-carboxylic acid] | < 1 | 12.5 to 150 (≈ 31.9 to 383 µM) | 12.5 to 150 (≈ 31.9 to 383 µM) | 12.5 to 150 (≈ 31.9 to 383 µM) | 12.5 to 150 (≈ 31.9 to 383 µM) | 12.5 to 150 (≈ 31.9 to 383 µM) | 12.5 to 150 (≈ 31.9 to 383 µM) |  |  |  |  |  | 
CCc1c(-c2ccc(N3CC[C@@H](F)C3)cc2F)[nH]c(=O)c(C(=O)O)c1O [Cpd 293, 5-ethyl-6-{2-fluoro-4-[(3R)-3-fluoropyrrolidin-1-yl]phenyl}-4-hydroxy-2-oxo-1,2-dihydropyridine-3-carboxylic acid] | < 1 | 3.5 to 12.5 (≈ 9.61 to 34.3 µM) | 3.5 to 12.5 (≈ 9.61 to 34.3 µM) | 12.5 to 150 (≈ 34.3 to 412 µM) | 12.5 to 150 (≈ 34.3 to 412 µM) | 12.5 to 150 (≈ 34.3 to 412 µM) | 12.5 to 150 (≈ 34.3 to 412 µM) |  |  |  |  |  | 
CCc1c(-c2ccc(N3CCC(C4(N(C)C)CC4)C3)cc2)[nH]c(=O)c(C(=O)O)c1O (stereo not drawn) [Cpd 247, 6-(4-{3-[1-(dimethylamino)cyclopropyl]pyrrolidin-1-yl}phenyl)-5-ethyl-4-hydroxy-2-oxo-1,2-dihydropyridine-3-carboxylic acid] | < 1 | 3.5 to 12.5 (≈ 8.51 to 30.4 µM) | 3.5 to 12.5 (≈ 8.51 to 30.4 µM) | 12.5 to 150 (≈ 30.4 to 365 µM) | 12.5 to 150 (≈ 30.4 to 365 µM) | 3.5 to 12.5 (≈ 8.51 to 30.4 µM) | 12.5 to 150 (≈ 30.4 to 365 µM) |  |  |  |  |  | 
CCc1c(-c2ccc(N3C[C@H]4CC[C@H](NC)[C@H]4C3)cc2)[nH]c(=O)c(C(=O)O)c1O.Cl [Cpd 267, 5-ethyl-4-hydroxy-6-{4-[(3aR,4S,6aS)-4-(methylamino)hexahydrocyclopenta[c]pyrrol-2(1H)-yl]phenyl}-2-oxo-1,2-dihydropyridine-3-carboxylic acid hydrochloride] | 1 to 3.5 | 3.5 to 12.5 | 12.5 to 150 | 3.5 to 12.5 | 12.5 to 150 | 3.5 to 12.5 | 12.5 to 150 |  |  |  |  |  | 
CCc1c(-c2ccc(N3C[C@H]4CCCC[C@@]4(CN(C)C)C3)cc2)[nH]c(=O)c(C(=O)O)c1O.Cl [Cpd 266, 6-(4-{(3aR,7aS)-3a-[(dimethylamino)methyl]octahydro-2H-isoindol-2-yl}phenyl)-5-ethyl-4-hydroxy-2-oxo-1,2-dihydropyridine-3-carboxylic acid hydrochloride] | 1 to 3.5 | 12.5 to 150 | 3.5 to 12.5 | 3.5 to 12.5 | 12.5 to 150 | 12.5 to 150 | 12.5 to 150 | 12.5 to 150 | 12.5 to 150 |  |  |  | 
